# In patent US4906624A, “6-(((Substituted)pyridin-3-yl)alkyl)-and alkenyl)-tetrahydro-4-hydroxypyran-2-one inhibitors of cholesterol biosynthesis” (Warner-Lambert Company, priority 1988, dated 1990):
# Counter-ions that a name gives are not always drawn.
# Legend:
# Cholesterol Synthesis = assay: AICS screen: inhibition of cholesterol synthesis in rats (plasma [14C]cholesterol after sodium [1-14C]-acetate); format: in vivo; conditions: single dose, oral gavage, male Sprague-Dawley rats fed 5% cholestyramine, acetate one hour after drug, blood after 50 minutes; for change in vivo at 1 mg/kg / change in vivo at 1.5 mg/kg: Rattus norvegicus, 50 min
# Experimental: The ability of compounds of the present invention to inhibit the biosynthesis of cholesterol was also measured by a method (designated AICS screen) which utilizes the procedure described by A. W. Alberts et al, Proc. Natl. Acad. Sci., (1980), 77, pp 3957-3961.
# In this method male Sprague-Dawley rats (200 g body weight) previously fed 5% cholestyramine for three days were randomly divided into groups (N=5/group) and given a single dose of vehicle (controls) or compound by an oral gavage at the indicated doses. One hour after drug dosing, all rats were injected intraperitoneally with sodium[1-^14 C]-acetate (18.75 μCi/rat in 0.2 ml saline). After 50 minutes, blood samples were taken, plasma obtained by centrifugation, and plasma [^14 C]cholesterol measured after saponification and extraction.
# [1] = test system: sterol synthesis (cholesterol biosynthesis) in rat liver homogenate; assay: CSI screen: inhibition of sterol/cholesterol synthesis (14C-acetate incorporation into nonsaponifiable lipid) by rat liver homogenate; format: biochemical; conditions: one-hour period, rats fed 5% cholestyramine for four days, 60 min, read-out: CSI/IC50 (concentration required for 50% inhibition of sterol synthesis)
# Experimental: The ability of compounds of the present invention to inhibit the biosynthesis of cholesterol was measured by a method (designated CSI screen) which utilizes the procedure described by R. E. Dugan, et al, Archiv. Biochem. Biophys., (1972), 152, 21-27. In this method, the level of HMG-CoA enzyme activity in standard laboratory rats is increased by feeding the rats a chow diet containing 5% cholestyramine for four days, after which the rats are sacrificed.
# The rat livers are homogenized, and the incorporation of […] into nonsaponifiable lipid by the rat liver homogenate is measured. The micromolar concentration of compound required for 50% inhibition of sterol synthesis over a one-hour period is measured, and expressed as an IC50 value.
Compound,change in vivo at 1 mg/kg (Cholesterol Synthesis; 1.0 mg/kg) [%],other results
"Cc1cc(-c2ccc(F)cc2)c(/C=C/[C@@H]2C[C@@H](O)CC(=O)O2)c(C(C)C)[n+]1[O-] (relative stereo) [Example 42, 4α,6β(E)-6-[2-[4-(4-fluorophenyl)-6-methyl-2-(1-methylethyl)-3-pyridinyl]ethenyl]tetrahydro-4-hydroxy-2H-pyran-2-one, N-oxide]",-69,
"Cc1cc(C)c(/C=C/[C@@H]2C[C@@H](O)CC(=O)O2)c(-c2ccc(F)cc2)n1 (relative stereo) [Example 28, [4α,6β(E)]-6-[2-[2-(4-fluorophenyl)-4,6-dimethyl-3-pyridinyl]ethenyl]tetrahydro-4-hydroxy-2H-pyran-2-one]",,change in vivo at 1.5 mg/kg (Cholesterol Synthesis): -64%
"CC(C)c1nc(-c2ccccc2)cc(-c2ccc(F)cc2)c1/C=C/[C@@H]1C[C@@H](O)CC(=O)O1 (relative stereo) [Example 30, [4α,6β(E)]-6-[2-[4-(4-fluorophenyl)-2-(1-methylethyl)-6-phenyl-3-pyridinyl]ethenyl]tetrahydro-4-hydroxy-2H-pyran-2-one]",-64,
CCc1nc(CC)c(CO)c(-c2ccc(F)cc2)c1/C=C/[C@@H]1C[C@@H](O)CC(=O)O1 (relative stereo) [Example 36],-68,
"CCc1cc(-c2ccc(F)cc2)c(/C=C/[C@@H]2C[C@@H](O)CC(=O)O2)c(CC)n1 (relative stereo) [Example 26, [4α,6β(E)]-6-[2-[2,6-diethyl-4(4-fluorophenyl)-3-pyridinyl]ethenyl]tetrahydro-4-hydroxy-2H-pyran-2-one]",-60,
O=C1C[C@H](O)C[C@@H](/C=C/c2c(-c3ccc(F)cc3)cc(C(F)F)nc2C(F)(F)F)O1 (relative stereo) [Example 24],-54,
"COc1c(C)nc(C(C)C)c(/C=C/[C@@H]2C[C@@H](O)CC(=O)O2)c1-c1ccc(F)cc1 (relative stereo) [Example 38, [4α,6β(E)]-6-[2-[4-(4-fluorophenyl)-5-methoxy-6-methyl-2-(1-methylethyl)-3-pyridinyl]ethenyl]tetrahydro-4-hydroxy-2H-pyran-2-one]",-67,
"COC(=O)c1c(C(C)C)nc(C(C)C)c(/C=C/[C@@H]2C[C@@H](O)CC(=O)O2)c1-c1ccc(F)cc1 (relative stereo) [Example 13, [2α,4β-(E)]-4-(4-fluorophenyl)-2,6-bis(1-methylethyl)-5-[2-(tetrahydro-4-hydroxy-6-oxo-2H-pyran-2-yl)ethenyl]-3-pyridinecarboxylic acid, methyl ester]",-67,
"Cc1cc(-c2ccc(F)cc2)c(/C=C/[C@@H](O)C[C@@H](O)CC(=O)O)c(C(C)C)n1 (relative stereo) [Example 21, [R*,S*-(E)]-7-[4-(4-fluorophenyl)-6-methyl-2-(1-methylethyl)-3-pyridinyl]-3,5-dihydroxy-6-heptenoic acid, hemicalcium salt]",-67,
"CCc1nc(CC)c(C(=O)OC)c(-c2ccc(F)cc2)c1/C=C/[C@@H]1C[C@@H](O)CC(=O)O1 (relative stereo) [Example 34, [2α,4β(E)]-2,6-diethyl-4-(4-fluorophenyl)-5-[2-(tetrahydro-4-hydroxy-6-oxo-2H-pyran-2-yl)ethenyl]-3-pyridinecarboxylic acid, methyl ester]",-57,
"C=Cc1c(C)nc(C(C)C)c(/C=C/[C@@H]2C[C@@H](O)CC(=O)O2)c1-c1ccc(F)cc1 (relative stereo) [Example 40, [4α,6β(E)]-6-[2-[5-ethenyl-4-(4-fluorophenyl)-6-methyl-2-(1-methylethyl)-3-pyidinyl]ethenyl]tetrahydro-4-hydroxy-2H-pyran-2-one]",-68,
"Cc1cc(-c2ccc(F)cc2)c(/C=C/[C@@H]2C[C@@H](O)CC(=O)O2)c(C(C)C)n1 (relative stereo) [Example 19, [4α,6β(E)]-6-[2-[4-(4-fluorophenyl)-6-methyl-2-(1-methylethyl)-3-pyridinyl]ethenyl]tetrahydro-4-hydroxy-2H-pyran-2-one]",-72,
"Cc1cc(-c2ccc(F)cc2)c(/C=C/[C@@H]2C[C@@H](O)CC(=O)O2)c(C(F)(F)F)n1 (relative stereo) [Example 22, [4α,6β(E)]-6-[2-[4-(4-fluorophenyl)-6-methyl-2-(trifluoromethyl)-3-pyridinyl]ethenyl]tetrahydro-4-hydroxy-2H-pyran-2-one]",-59,
"CCOC(=O)c1c(C)nc(C)c(/C=C/[C@@H]2C[C@@H](O)CC(=O)O2)c1-c1ccc(F)cc1 (relative stereo) [Example 11, [4α,6β-(E)]-4-(4-fluorophenyl)-2,6-dimethyl-5-[2-(tetrahydro-4-hydroxy-6-oxo-2H-pyran-2-yl)ethenyl]-, ethyl ester, 3-pyridinecarboxylic acid]",,change in vivo at 1.5 mg/kg (Cholesterol Synthesis): -41%
"CCCNC(=O)c1c(C(C)C)nc(C(C)C)c(/C=C/C2CC(O)CC(=O)O2)c1-c1ccc(F)cc1 (stereo not drawn) [Example 32, [2α,4α(E)]-4-(4-fluorophenyl)-2,6-bis(1-methylethyl)-n-propyl-5-[2-(tetrahydro-4-hydroxy-6-oxo-2H-pyran-2-yl)ethenyl]-3-pyridinecarboxamide]",,% Inhibition of Cholesterol Synthesis (Cholesterol Synthesis; 1.0 mg/kg): -25%
COC(=O)c1c(C(C)C)nc(C)c(/C=C/[C@@H]2C[C@@H](O)CC(=O)O2)c1-c1ccc(F)cc1 (relative stereo) [Example 9],,change in vivo at 1.5 mg/kg (Cholesterol Synthesis): -55%
CC(C)c1cc(-c2ccc(F)cc2)c(/C=C/[C@@H]2C[C@@H](O)CC(=O)O2)c(C(C)C)n1 (relative stereo) [Example 15],-55,
"Cc1nc(C)c(/C=C/[C@@H](O)C[C@@H](O)CC(=O)O)c(-c2ccc(F)cc2)c1C#N (relative stereo) [Example 6, [R*,S*(E)]-7-[5-Cyano-4-(4-fluorophenyl)-2,6-dimethyl-3-pyridinyl]-3,5-dihydroxy-6-heptenoic acid, sodium salt]",,IC50 [1]: 62 nM
